Key:
Assay type in all cases: cell-based
[1] = tested on: human immortalized podocytes inducibly expressing APOL1 G2; assay: APOL1 G2 podocyte cell rescue assay (Example B4); details: differentiated human podocytes, doxycycline-induced APOL1 G2, CellTiter-Glo, geometric mean of at least 2 runs, † = single run
Description: APOL1 G2 human immortalized podocyte viability assay for measurement of cytotoxicity reversal by compound (APOL1 G2 podocyte cell rescue assay).
Cell Handling. The hTERT-immortalized kidney podocyte cell line was procured from the laboratory of Dr. Moin Saleem at the University of Bristol, UK (Nephrology 17 (2012) 525-531; doi:10.1111/j.1440-1797.2012.01619.x; herein incorporated by reference in its entirety). Parental and engineered cell lines were cultured in RPMI 1640 media (Gibco, 11875093) with 10% Tet System Approved FBS (Takara, 631101). The engineered cell line was maintained under selection (2.5 μg/mL puromycin). Cell lines were maintained and engineered at 33° C. Cell cultures were transferred to 37° C. for 10 to 14 days to initiate differentiation (Nephrology 17 (2012) 525-531; doi:10.1111/j.1440-1797.2012.01619.x; herein incorporated by reference in its entirety). During this time, media was refreshed every 3 days. After differentiation, cells engineered to inducibly express APOL1 G2 were used in the podocyte cell rescue assay.
Cell Line Engineering. The APOL1 G2 coding sequence was cloned into the pLVX-TetOne-Puro vector and verified by sequencing (Genscript Biotech). This construct was designed to have a C-terminal HiBiT tag. Lentiviral packaging of the vector was conducted using the Lenti-X Packaging Single Shots (VSVG) system according to manufacturer instructions (Takara Bio, 631275). A stable cell line was generated by transfecting the parental podocyte cell line with the concentrated virus in media with 5 μg/mL polybrene (Sigma, TR-1003-G). Media was changed the following day. 72 hours post transfection, 2.5 μg/mL puromycin (Gibco, A1113803) was added to the cells and cells were maintained in selection media thereafter. This APOL1 G2 stable cellular pool was subjected to a stringent limiting dilution to generate a pure stable clone (Podocyte/pLVX-TetOne APOL1 G2/clone D10) capable of inducible expression of APOL1 G2.
Assay Setup. T175 flasks containing differentiated podocytes engineered to inducibly express APOL1 G2 (Podocyte/pLVX-TetOne APOL1 G2/clone D10) were washed once with 15 mL of DPBS (Thermo Fisher, 14190-144). These flasks were each trypsinized with 3 mL of prewarmed TrypLE Express (Gibco, 12605-010) and incubated at 37° C. with 5% CO2 until cells detached and neutralized with 7 mL of prewarmed assay media (RPMI 1640 media with 10% Tet System Approved FBS, no selection agent). Cells were pooled and the resulting suspension was gently mixed. The cell suspension was counted using a Countess Cell Counting Chamber (Invitrogen) and the cell concentration was adjusted to 240,000 cells/mL using assay media. Next, 25 μL of a 480 ng/mL working stock of doxycycline diluted in assay media was added to an assay ready plate. All experiments were performed in 384-well, white, solid bottom, tissue culture treated plates (Greiner, 781080). The assay ready compound plates were generated with duplicate 8-point compound dilution series that consisted of 3-fold stepwise dilutions (0.4% DMSO final). The plates were centrifuged at 1000 rpm for 1 minute. 25 μL of diluted cell suspension (final cell density=6,000 cells/well) was added to each well. The plates were centrifuged again at 1000 rpm for 1 minute and then incubated in a humidified incubator (37° C. with 5% CO2). After 95 hours, the assay plates were removed from the incubator and allowed to equilibrate to room temperature for 1 hour. CellTiter-Glo® reagent (Promega, G7570) was prepared according to the manufacturer's instructions. 25 μL of CellTiter-Glo® reagent was added to each well. Assay plates were sealed with foil and mixed for 5 minutes on an orbital shaker (500 rpm) to induce cell lysis. Plates were centrifuged at 1000 rpm for 1 minute. 10 minutes after CellTiter-Glo® reagent addition, an Envision plate reader (Perkin Elmer) was used to measure the luminescent signal of each assay plate. Collaborative Drug Discovery software was utilized for graphing data. […]

[2] = tested on: HEK293 clonal cell line overexpressing APOL1 G1; assay: APOL1 G1 HEK293 cell rescue assay (Example B3); details: geometric mean of at least 2 runs, † = single run, ¥ = concentration at 50% rescue estimated (no sigmoidal curve)
Method in brief: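 HEK293 clonal line overexpressing APOL1 G1; EC50 is half-maximal reversal of APOL1-induced cell death. Values are the geometric mean of ≥2 runs on separate days, each run the average of duplicate wells. Where no sigmoidal curve could be fitted, the concentration giving 50% rescue was estimated.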

[3] = tested on: HEK293 cells overexpressing APOL1 G2; assay: APOL1 G2 HEK293 cell rescue assay (reversal of cell death caused by overexpression of APOL1); details: geometric mean of at least 2 assay runs, † = single assay run
Method in brief: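 EC50 is the half-maximal effective concentration for reversing cell death driven by APOL1 G2 overexpression in HEK293 cells. Reported as geometric mean of at least 2 runs on separate days, each run averaging duplicate wells per plate; some values from a single run.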

[4] = Homo sapiens, HEK293, HEK293 clonal line overexpressing APOL1 G1
[5] = Homo sapiens, HEK293, HEK293 overexpressing APOL1 G2

| SMILES | EC50 ([1]; Homo sapiens) | EC50 [2, 4] | EC50 [3, 5] | EC50 [1] | EC50 ([2]; HEK293 clonal line overexpressing APOL1 G1) | EC50 ([3]; HEK293 overexpressing APOL1 G2) |
| --- | --- | --- | --- | --- | --- | --- |
| O=C(NC1CCS(=O)(=O)CC1)c1ccc(OCCN2CCC3(CC2)C(=O)Nc2ccc(Cl)cc23)cc1F [Compound 240, 4-(2-{5-chloro-2-oxo-1,2-dihydrospiro[indole-3,4′-piperidin]-1′-yl}ethoxy)-N-(1,1-dioxo-1λ^6-thian-4-yl)-2-fluorobenzamide] | 13.9 nM | 282 nM | 52.6 nM |  |  |  |
| O=C(NC1CCS(=O)(=O)C1)c1ccc(OCCN2CCC3(CC2)C(=O)Nc2ccc(Cl)cc23)cc1F (single isomer, unassigned) [Compound 243, 4-(2-{5-chloro-2-oxo-1,2-dihydrospiro[indole-3,4′-piperidin]-1′-yl}ethoxy)-N-[(3R) or (3S)-1,1-dioxo-1λ^6-thiolan-3-yl]-2-fluorobenzamide] |  |  |  | 4.11 nM | 208 nM | 46 nM |
| O=C1Nc2ccc(Cl)cc2C12CCN(CCOc1cnc(CCO)nc1)CC2 [Compound 331, 5-chloro-1′-(2-{[2-(2-hydroxyethyl)pyrimidin-5-yl]oxy}ethyl)-1,2-dihydrospiro[indole-3,4′-piperidin]-2-one] | 85.7 nM | 440 nM | 166 nM |  |  |  |
| O=C(NC1CCS(=O)(=O)C1)c1ccc(OCCN2CCC3(CC2)C(=O)Nc2ccc(Cl)cc23)cc1F (single isomer, unassigned) [Compound 242, 4-(2-{5-chloro-2-oxo-1,2-dihydrospiro[indole-3,4′-piperidin]-1′-yl}ethoxy)-N-[(3S) or (3R)-1,1-dioxo-1λ^6-thiolan-3-yl]-2-fluorobenzamide] |  | 316 nM | 74 nM | 19.7 nM |  |  |
